Earlier results in PMC9227077, “Prediction Models for Brain Distribution of Drugs Based on Biomimetic Chromatographic Data” (Molecules, 2022).
Like-named read-outs stand apart in the source and are kept apart here.

Key:
[1] = experimental, cited from earlier work; for logP: octanol-water partition coefficient
[2] = system: human serum albumin; design: method as in ref 45 (a number printed in a supplementary file, which may have a reference list of its own: not looked up in the article's list); conditions: cited from earlier work
[3] = cited from earlier work
[4] = system: α1 acid glycoprotein; design: method as in ref 23, 24, 27, 29, 45 (a number printed in a supplementary file, which may have a reference list of its own: not looked up in the article's list); conditions: pH=7.4, 100% aqueous mobile phase; previously obtained in authors' laboratory; cited from earlier work
[5] = design: method as in ref 23, 24, 27, 29, 45 (a number printed in a supplementary file, which may have a reference list of its own: not looked up in the article's list); conditions: 100% aqueous mobile phase, previously obtained in authors' laboratory, cited from earlier work
[6] = most values in rats, average if more than one value; cited from earlier work
[7] = pH=7.4, isocratic, 10% acetonitrile, available for 37 compounds, remaining calculated by equation
[8] = literature Kp,brain converted to logBB
[9] = total brain/total plasma, preferably rat studies

CCCC(C)C1(CC)C(=O)NC(=O)NC1=O (stereo not drawn) [Pentobarbital]
logP [1]: 2.07
logD ([1]; pH=5.0, octanol-water): 1.88
logD ([1]; pH=7.4, octanol-water): 1.95
logk10,HSA [2, 7]: -0.04
Kp,brain ([3]; rat, in vivo): 1.32
logBB exper. ([3]; rat, in vivo): 0.12
logkwAGP [4]: 1.35
logkw IAM ([5]; pH=5.0, PBS): 1.40
logkw IAM ([5]; pH=7.4, PBS): 1.29

CN1CC[C@]23c4c5ccc(O)c4O[C@H]2[C@@H](O)C=C[C@H]3[C@H]1C5 [Morphine]
logkw IAM ([5]; pH=5.0, PBS): 0.10
logkw IAM ([5]; pH=7.4, PBS): 0.63

CN1C(=O)CN=C(c2ccccc2F)c2cc([N+](=O)[O-])ccc21 [Flunitrazepam]
logk10,HSA [2]: 0.26
logkwAGP [4]: 1.44
logkw IAM ([5]; pH=7.4, PBS): 1.79

CC(C)NCC(O)COc1cccc2[nH]ccc12 (stereo not drawn) [Pindolol]
logD ([1]; pH=5.0, octanol-water): -1.15
logD ([1]; pH=7.4, octanol-water): -0.21
logk10,HSA [2, 7]: -0.03
logBB exper. [3, 8]: -0.14
Kp,brain [3, 9]: 0.72
fu,brain [6]: 0.400

CC(C)=CCN1CCC2(C)c3cc(O)ccc3CC1C2C (stereo not drawn) [Pentazocine]
logP [1]: 4.64
logD ([1]; pH=5.0, octanol-water): 1.24
logD ([1]; pH=7.4, octanol-water): 4.02
logk10,HSA [2, 7]: 1.09
logBB exper. [3, 8]: 0.545
Kp,brain [3, 9]: 3.51
logkw IAM ([5]; pH=5.0, PBS): 1.70
logkw IAM ([5]; pH=7.4, PBS): 2.06

CC(=O)Oc1ccccc1C(=O)O [Acetylsalicylic acid]
logD ([1]; pH=5.0, octanol-water): -0.29
logD ([1]; pH=7.4, octanol-water): -1.20
logk10,HSA [2, 7]: 0.38
logBB exper. [3, 8]: -0.5
Kp,brain [3, 9]: 0.32
logkw IAM ([5]; pH=5.0, PBS): -0.48
logkw IAM ([5]; pH=7.4, PBS): -0.81

CN1C(=O)CN=C(c2ccccc2)c2cc(Cl)ccc21 [Diazepam]
logkw IAM ([5]; pH=5.0, PBS): 2.12
logkw IAM ([5]; pH=7.4, PBS): 2.12

OCCN1CCN(CCCN2c3ccccc3Sc3ccc(Cl)cc32)CC1 [Perphenazine]
logP [1]: 4.20
logD ([1]; pH=5.0, octanol-water): 1.61
logD ([1]; pH=7.4, octanol-water): 3.65
logk10,HSA [2, 7]: 1.24
fu,brain [6]: 0.004
logkwAGP [4]: 3.19
logkw IAM ([5]; pH=7.4, PBS): 3.67

CC(CN1c2ccccc2Sc2ccccc21)N(C)C (stereo not drawn) [Promethazine]
logD ([1]; pH=5.0, octanol-water): 1.59
logD ([1]; pH=7.4, octanol-water): 2.79
logk10,HSA [2, 7]: 1.05
logBB exper. [3, 8]: 0.824
Kp,brain [3, 9]: 6.67
logkwAGP [4]: 2.50
logkw IAM ([5]; pH=5.0, PBS): 2.18
logkw IAM ([5]; pH=7.4, PBS): 2.78

CN1[C@@H]2C[C@@H](OC(=O)[C@H](CO)c3ccccc3)C[C@H]1[C@@H]1O[C@@H]12 [Scopolamine]
logkw IAM ([5]; pH=5.0, PBS): 0.73
logkw IAM ([5]; pH=7.4, PBS): 1.15

CN1C(=O)C(O)N=C(c2ccccc2)c2cc(Cl)ccc21 (stereo not drawn) [Temazapam]
logk10,HSA [2, 7]: 0.28
logkw IAM ([5]; pH=5.0, PBS): 1.76
logkw IAM ([5]; pH=7.4, PBS): 1.76

Cc1c(N(C)C)c(=O)n(-c2ccccc2)n1C [Aminopyrine]
logk10,HSA [2, 7]: -0.30
logBB exper. [3, 8]: 0.00
Kp,brain [3, 9]: 1.00

CN1[C@@H]2CC[C@H]1C[C@@H](OC(=O)C(CO)c1ccccc1)C2 (stereo partly drawn) [Atropine]
logkw IAM ([5]; pH=7.4, PBS): 1.05

CNCCC(Oc1ccc(C(F)(F)F)cc1)c1ccccc1 (stereo not drawn) [Fluoxetine]
logP [1]: 4.26
logBB exper. [3, 8]: 0.72
Kp,brain [3, 9]: 5.25
logkwAGP [4]: 2.10
logkw IAM ([5]; pH=5.0, PBS): 2.46
logkw IAM ([5]; pH=7.4, PBS): 2.98

CN(C)CCCN1c2ccccc2CCc2ccc(Cl)cc21 [Clomipramine]
logP [1]: 5.46
logD ([1]; pH=5.0, octanol-water): 2.19
logD ([1]; pH=7.4, octanol-water): 3.30
logBB exper. [3, 8]: 1.34
Kp,brain [3, 9]: 21.88
fu,brain [6]: 0.004
logkwAGP [4]: 2.70
logkw IAM ([5]; pH=5.0, PBS): 2.49
logkw IAM ([5]; pH=7.4, PBS): 3.29

O=c1n(CCCN2CCN(c3cccc(Cl)c3)CC2)nc2ccccn12 [Trazodone]
logD ([1]; pH=5.0, octanol-water): 2.89
logD ([1]; pH=7.4, octanol-water): 3.70
fu,brain [6]: 0.071
logkwAGP [4]: 2.36

CNCCCC12CCC(c3ccccc31)c1ccccc12 [Maprotiline]
logP [1]: 4.14
logD ([1]; pH=5.0, octanol-water): 1.19
logD ([1]; pH=7.4, octanol-water): 1.44
logk10,HSA [2, 7]: 0.80
logBB exper. [3, 8]: 1.76
Kp,brain [3, 9]: 57.54
fu,brain [6]: 0.006
logkw IAM ([5]; pH=5.0, PBS): 2.25
logkw IAM ([5]; pH=7.4, PBS): 2.81

Cn1c(=O)c2[nH]cnc2n(C)c1=O [Theophylline]
logkw IAM ([5]; pH=5.0, PBS): -0.26
logkw IAM ([5]; pH=7.4, PBS): -0.08

CN(C)CCCN1c2ccccc2CCc2ccccc21 [Imipramine]
logBB exper. [3, 8]: 0.83
Kp,brain [3, 9]: 6.76
fu,brain [6]: 0.035
logkw IAM ([5]; pH=5.0, PBS): 2.05
logkw IAM ([5]; pH=7.4, PBS): 2.73

CCOc1nc2cccc(C(=O)O)c2n1Cc1ccc(-c2ccccc2-c2nnn[nH]2)cc1 [Candesartan]
logP [1]: 3.36
logD ([1]; pH=5.0, octanol-water): 1.00
logD ([1]; pH=7.4, octanol-water): -1.35
logk10,HSA [2, 7]: 0.42
logBB exper. [3, 8]: -1.4
Kp,brain [3, 9]: 0.04
logkwAGP [4]: 0.09
logkw IAM ([5]; pH=5.0, PBS): 1.57
logkw IAM ([5]; pH=7.4, PBS): 1.00

O=C1Nc2ccc(Cl)cc2C(c2ccccc2Cl)=NC1O (stereo not drawn) [Lorazepam]
logk10,HSA [2, 7]: 0.67
logBB exper. [3, 8]: 0.47
Kp,brain [3, 9]: 2.95
logkwAGP [4]: 1.33
logkw IAM ([5]; pH=5.0, PBS): 2.01
logkw IAM ([5]; pH=7.4, PBS): 2.03

CC(=O)[C@H]1CC[C@H]2[C@@H]3CCC4=CC(=O)CC[C@]4(C)[C@H]3CC[C@]12C [Progesterone]
logD ([1]; pH=5.0, octanol-water): 3.89
logD ([1]; pH=7.4, octanol-water): 3.48
logk10,HSA [2, 7]: 0.84
fu,brain [6]: 0.046
logkw IAM ([5]; pH=7.4, PBS): 3.06

CN(C)CCCN1c2ccccc2Sc2ccc(Cl)cc21 [Chlorpromazine]
logk10,HSA [2, 7]: 1.34
fu,brain [6]: 0.003
logkwAGP [4]: 2.30

Nc1nc2c(ncn2COCCO)c(=O)[nH]1 [Acyclovir]
logP [1]: -1.56
logD ([1]; pH=5.0, octanol-water): -1.56
logD ([1]; pH=7.4, octanol-water): -1.56
logkw IAM ([5]; pH=5.0, PBS): -1.37
logkw IAM ([5]; pH=7.4, PBS): -1.15

COc1ccc2cc([C@H](C)C(=O)O)ccc2c1 [Naproxen]
logkw IAM ([5]; pH=5.0, PBS): 1.71
logkw IAM ([5]; pH=7.4, PBS): 0.98

CN(C)CCC=C1c2ccccc2COc2ccccc21 [Doxepin]
logP [1]: 3.96
logD ([1]; pH=5.0, octanol-water): 0.86
logD ([1]; pH=7.4, octanol-water): 2.22
logk10,HSA [2, 7]: 0.56
logkwAGP [4]: 2.30
logkw IAM ([5]; pH=5.0, PBS): 1.98
logkw IAM ([5]; pH=7.4, PBS): 2.50

NC(=O)CN1CCCC1=O [Piracetam]
logD ([1]; pH=5.0, octanol-water): -1.54
logD ([1]; pH=7.4, octanol-water): -1.54
logk10,HSA [2, 7]: -1.32
Kp,brain [3, 9]: 1.00

CCC1(c2ccccc2)C(=O)NC(=O)NC1=O [Phenobarbital]
logD ([1]; pH=5.0, octanol-water): 1.47
logD ([1]; pH=7.4, octanol-water): 1.14
logk10,HSA [2, 7]: -0.22
Kp,brain ([3]; rat, in vivo): 0.72
logBB exper. ([3]; rat, in vivo): -0.14
logkwAGP [4]: 1.10
logkw IAM ([5]; pH=5.0, PBS): 0.71
logkw IAM ([5]; pH=7.4, PBS): 0.28

O=C(CCCN1CCC(O)(c2ccc(Cl)cc2)CC1)c1ccc(F)cc1 [Haloperidol]
logk10,HSA [2, 7]: 0.77
fu,brain [6]: 0.008
logkw IAM ([5]; pH=5.0, PBS): 1.86
logkw IAM ([5]; pH=7.4, PBS): 2.65

OCCOCCN1CCN(C(c2ccccc2)c2ccc(Cl)cc2)CC1 (stereo not drawn) [Hydroxyzine]
logD ([1]; pH=5.0, octanol-water): 0.73
logD ([1]; pH=7.4, octanol-water): 3.01
logk10,HSA [2, 7]: 0.60
logBB exper. [3, 8]: 0.39
Kp,brain [3, 9]: 2.45
fu,brain [6]: 0.013
logkw IAM ([5]; pH=5.0, PBS): 2.23
logkw IAM ([5]; pH=7.4, PBS): 3.01

CC(C)NCC(O)COc1ccc(CC(N)=O)cc1 (stereo not drawn) [Atenolol]
logkw IAM ([5]; pH=5.0, PBS): -0.20
logkw IAM ([5]; pH=7.4, PBS): 0.51
